Reference: US20230116978A1, “METHOD FOR LIBERATING INTRACELLULAR MATERIAL FROM PLANT CELLS” (Deerland Enzymes, Inc., priority 2021, published 2023)

What was measured:
[1] = system: human polymorphonuclear (PMN) cells; assay: ROS formation by inflammatory PMN cells (H2O2-triggered, DCF-DA, flow cytometry); assay type: cell-based; details: for effect on ROS formation by PMN cells (anti-/pro-inflammatory), in words: H2O2-triggered ROS
Source text: In measuring the effect on free radical formation by inflammatory cells, human polymorphonuclear (PMN) cells were used for testing effects of a product on ROS formation. PMN cells constitute approximately 70% of the white blood cells in humans. PMN cells produce high amounts of ROS upon certain inflammatory stimuli. Natural products may affect PMN cell ROS formation by three different mechanisms: 1. […] Triggering an anti-inflammatory cellular signal, leading to reduced ROS formation; 3. Triggering an immune reaction, leading to enhanced ROS formation. The effects of test products were measured by exposing freshly purified human PMN cells to the test products. During the incubation with a test product, any antioxidant compounds able to cross the cell membrane can enter the interior of the PMN cells, and compounds that trigger a signaling event can do so. Then the cells are washed, loaded with the DCF-DA dye, which turns fluorescent upon exposure to ROS. Formation of ROS is triggered by addition of H2O2. The fluorescence intensity of the PMN cells is evaluated by flow cytometry. The low fluorescence intensity of untreated control cells serves as a baseline and PMN cells treated with H2O2 alone serve as a positive control. […] The testing was performed on cells from a healthy donor. […]

[2] = Total antioxidant capacity, Folin-Ciocalteu assay (total phenolics assay); details: for Total antioxidant capacity: Folin-Ciocalteu, gallic acid reference
Description: Total antioxidant capacity was tested in the Folin-Ciocalteu assay (also known as the total phenolics assay). This assay makes use of the Folin-Ciocalteu reagent to measure antioxidants. The assay is performed by adding the Folin-Ciocalteu's phenol reagent to serial dilutions of extract, thoroughly mixing, and incubating for 5 minutes. Sodium carbonate is added, starting a chemical reaction producing a color. The reaction is allowed to continue for 30 minutes at 37° C. Optical absorbance is measured at 765 nm in a colorimetric plate reader. Gallic acid is used as a reference standard, and the data reported in Gallic Acid Equivalents per gram product.

human RBC = assay: Cellular antioxidant protection, CAP-e bioassay; assay type: cell-based; details: for Cellular antioxidant Protection (CAP-e value): human RBC, AAPH oxidation
Description: Cell-based antioxidant protection was measured via a CAP-e bioassay. […] The CAP-e bioassay was specifically designed to work with natural products and ingredients. The red blood cell (RBC) was used as the model cell type as it is an inert cell type, in contrast to other cell types such as PMN cells. The red blood cell-based assay was developed particularly to be able to assess antioxidants from complex natural products in a cell-based system, as well as help interpret subsequent data from more complex cellular models. Freshly purified human RBC are washed repeatedly in physiological saline, and then exposed to the test products. During the incubation with a test product, any antioxidant compounds able to cross the cell membrane can enter the interior of the RBC. Then the RBC are washed to remove compounds that were not absorbed by the cells, and loaded with the DCF-DA dye, which turns fluorescent upon exposure to reactive oxygen species (ROS). Oxidation is triggered by addition of the peroxyl free radical generator AAPH. The fluorescence intensity is evaluated. The low fluorescence intensity of untreated control cells serves as a baseline, and RBC treated with AAPH alone serve as a positive control for maximum oxidative damage. […] Based on the low fluorescence of the untreated control wells, and the high fluorescence of the cell cultures exposed to oxidative damage, the fluorescence intensity in cell cultures treated with test products prior to exposure to oxidative stress is used to calculate the percent inhibition of cellular oxidative stress.

SMILES	effect on ROS formation by PMN cells (anti-/pro-inflammatory), in words [1]	Total antioxidant capacity [2] [mg GAE per gram]	cellular antioxidant protection, comparison in words (human RBC)	Cell lysing (human RBC; highest concentration tested)	Cellular antioxidant Protection (CAP-e value) (human RBC) [μM GA/gram]	effect on ROS formation by PMN cells at the highest/higher doses ([1]; highest or higher doses)	total antioxidant capacity, comparison in words [2]
CC1=C(/C=C/C(C)=C/C=C/C(C)=C/C=C/C=C(C)/C=C/C=C(C)/C=C/C2=C(C)C(=O)[C@@H](O)CC2(C)C)C(C)(C)C[C@H](O)C1=O [Astaxanthin]	less anti-inflammatory capacity than the SOLARPLAST® post-aqueous fraction	2					
N[C@@H](CCC(=O)N[C@@H](CS)C(=O)NCC(=O)O)C(=O)O [L-glutathione, reduced]	less anti-inflammatory capacity than the SOLARPLAST® post-aqueous fraction	153	had more antioxidant capacity than SOLARPLAST®	Cell lysing occurred	619	robust increase in ROS formation	had more antioxidant capacity than SOLARPLAST®
Oc1ccc(C=Cc2cc(O)cc(O)c2)cc1 [Resveratrol]	considerably more anti-inflammatory capabilities than any of the fractions of SOLARPLAST®		had more antioxidant capacity than SOLARPLAST®		235		
